Measurements as given in US12539279B2, “Supramolecular ionizable lipid molecules with heteroatomic tuning for nucleic acid delivery” (priority 2023, dated 2026).
“Also recorded” adds a separate entry of the source. Like-named read-outs stand apart in the source and are kept apart here.

Key:
[1] = system: firefly luciferase mRNA expression in liver, spleen, lungs, heart, kidneys; assay: Organ expression of firefly luciferase mRNA after intravenous injection in mice; assay type: in vivo, BALB/c mice; details: 6 hours post-dose; for organ in which the highest total flux was measured: intravenous 0.5 μg mRNA
Method: (§1) All procedures used in animal studies conducted at the University of Toronto were approved by Institutional Animal Care and Use committee (IACUC) under protocol number 20012621 and comply with all applicable local, provincial, and federal regulations. Female BALB/c mice (7-8 weeks old) were purchased from Charles River Laboratories and acclimated for 1 to 2 weeks before initiation of the study.
Mice (n=3) were injected intravenously (tail vein) with 0.5 μg of formulated firefly luciferase mRNA in 200 μL. At 6 hours post-dose, mice were injected intraperitoneally with 3 mg D-Luciferin (Thermo Scientific 88291) in 200 μL 1×PBS. 5 minutes later, mice were euthanized and key organs (liver, spleen, kidneys, lungs, and heart) were harvested and immediately imaged on an in vivo imaging system (PerkinElmer, IVIS Spectrum) to measure total bioluminescent flux (photons/second). LNPs formulated with compounds I-2, I-4, I-5, I-6, I-8 were tested for their ability to functionally deliver firefly luciferase mRNA to the major organs (liver, spleen, lungs, heart, kidneys) after intravenous injection and were compared to compounds I-12 and SM-102.

[2] = assay type: physicochemical
Method: Determination of the apparent pKa of LNPs was carried out using a TNS assay. Briefly, a series of buffers was generated by titrating a solution containing 10 mM citrate, 10 mM phosphate, 10 mM borate, and 150 mM NaCl with 1.0 M HCl. Aliquots of this combined buffer were taken to generate 12 total buffers ranging from pH 4.0 to 9.5 in increments of 0.5 pH. LNPs (diluted to 100 uM of ionizable lipid in distilled water) and 6-(p-toluidino)-2-naphthalenesulfonic acid (TNS, Sigma Aldrich, 60 uM in distilled water) were diluted into these buffers to a final concentration of 9 and 5.45 μM, respectively. The plate was covered and equilibrated at room temperature for 20 min. Fluorescence intensity was determined using a BioTek H1 Synergy plate reader (325 nm excitation/435 nm emission). The raw fluorescence values were fit using GraphPad Prism 8 to determine pKa, which corresponds to the pH value at 50% max fluorescence.

[3] = system: firefly luciferase protein expression; assay: Intramuscular expression profile of formulated firefly luciferase mRNA in mice (IVIS); assay type: in vivo, BALB/c mice; details: intramuscular firefly luciferase mRNA-LNP
Method: as §1
Mice (n=4) were injected in both quadriceps with 0.5 μg of formulated firefly luciferase mRNA in 50 μL. At various timepoints (6 hours, 24 hours, 48 hours, and 96 hours post-dose), mice were injected intraperitoneally with 3 mg D-Luciferin (Thermo Scientific 88291) in 200 μL 1×PBS. 5 minutes later, mice were anesthetized and imaged on an in vivo imaging system (PerkinElmer, IVIS Spectrum) to measure total bioluminescent flux (photons/second) in each hindlimb (FIG. 2). The area under curve (AUC) for individual hindlimbs was determined with GraphPad Prism 9.

[4] = Pharmacokinetics after intramuscular injection of mRNA-LNPs in mice; assay type: in vivo, female CD-1 mice; details: for Kp / half-life / AUC(0-t) / Cmax: female; for half-life / AUC(0-t) / Cmax: CD-1; for half-life: I-12 estimate not considered accurate, read-out: estimated apparent half-life (t1/2) in plasma (converted); for AUC(0-t): read-out: Overall plasma exposure (AUC0-tlast); for Cmax: read-out: maximum plasma concentration (Cmax); for Overall tissue exposure (AUC0-tlast), liver: mouse liver; for Overall tissue exposure (AUC0-tlast), muscle: mouse muscle; for time of peak plasma level: 12.312 μg Compound I-12 or 12.764 μg Compound I-6; for Overall tissue exposure (AUC0-tlast), spleen: mouse spleen; for detection in urine: mouse urine
Method: Pharmacokinetic studies in mice were conducted according to Transpharmation Canada Ltd. standard operating procedures (SOPs) and accepted scientific practices but was not in accordance with the principles of Good Laboratory Practice (GLP). Two studies were conducted and have been combined for analysis. Their objective was to determine the concentrations of two ionizable lipids, Compound I-12, and Compound I-6, in plasma, muscle, liver, spleen, urine, and feces following intramuscular (IM) injection of each lipid to groups of female CD-1 mice. All animals received an intramuscular injection of one of the lipids, formulated as lipid nanoparticles (LNPs) with mRNA, into the right quadricep. Doses administered IM were 12.312 μg of Compound I-12 and 12.764 μg of Compound I-6, corresponding to 0.5 μg of mRNA formulated in LNPs. Animals in study 1 were group housed in metabolic cages (n=3 per cage) and euthanized at 6 timepoints (3, 6, 12, 24, 48 and 96 hours) over 4 days-post injection for the collection of blood, liver, spleen, and muscle (n=3/time-point). A single pooled urine and feces sample was also collected from each cage at the appropriate time-point. In study 2, animals were housed in shoebox cages and samples (n=4/time-point) were collected at 6, 12, 24, 48, 96 and 168 hours (Compound I-12 and Compound I-6) and at 21 days (I-12 only, n=3) post-dose. A single pooled feces sample was also collected from each cage at the time of cage changes and weighed following terminal collections. Blood samples were divided for bioanalysis and diagnostic testing. Data from both studies was combined for data analysis. Tandem liquid chromatography-mass spectrometry (LC-MS/MS) methods were developed for the quantification of Compound I-12 and Compound I-6 in mouse plasma, muscle, liver, spleen, urine, and feces. The qualified methods were used to determine the concentration of the analytes in each matrix. The pharmacokinetics (PK) parameters for Compound I-12 and Compound I-6 were estimated from the plasma, muscle, liver, and spleen concentration versus time curves for each animal using Phoenix® WinNonlin 8.3 (Certara, Mountainview, CA).

[5] = assay type: physicochemical; details: for time required to have measurable levels of hydrolysis: 2.5 eq. KOH in d4-methanol, 1H NMR
Method: Ionizable lipids including compounds described herein (2 μmol) were hydrolyzed with 2.5 eq. of KOH (200 μL, 0.025 M in d4-methanol) in a 3 mm NMR tube. 1H-NMR was acquired with a 700 MHz Agilent DD2 Spectrometer every 5 min for a total of 180 min. Additionally, spectra were acquired at 24 h, 48 h, 72 h, 144 h, 192 h, and 240 h for I-12, ALC-0315, and DLin-MC3-DMA. Data acquisition started ˜10 min after the start of the reaction due to sample preparation and tune/lock/shim. Ester peaks were integrated using MestReNova and normalized to value at t=0 min. The data series were fitted to a one phase decay exponential following y=e, where k is the rate of hydrolysis.

[6] = CD-1, liver, mouse, IM mRNA-LNP, read-out: tissue/plasma AUC ratio, liver
[7] = CD-1, muscle, mouse, IM mRNA-LNP, read-out: tissue/plasma AUC ratio, muscle
[8] = CD-1, spleen, mouse, IM mRNA-LNP, read-out: tissue/plasma AUC ratio, spleen

Compound: CCCCCCCCCCN(CCCCCCCCCC)CCCOC(=O)CCN(CCO)CCC(=O)OCCCN(CCCCCCCCCC)CCCCCCCCCC [Compound I-2]
- organ in which the highest total flux was measured [1]: liver
- fraction of expression in the spleen compared with SM-102 ([1]; intravenous): higher fraction of expression in the spleen than SM-102

Compound: CCCCCCCCCCN(CCCCCCCCCC)CCCOC(=O)CCCN(CCO)CCCC(=O)OCCCN(CCCCCCCCCC)CCCCCCCCCC [Compound I-4]
- organ in which the highest total flux was measured [1]: liver
- fraction of expression in the spleen compared with SM-102 ([1]; intravenous): higher fraction of expression in the spleen than SM-102
- Apparent pKa [2]: 6-7
- intramuscular expression (in words) [3]: higher intramuscular expression than DLin-MC3-DMA

Compound: CCCCCCCCCCN(CCCCCCCCCC)CCCCOC(=O)CCCN(CCO)CCCC(=O)OCCCCN(CCCCCCCCCC)CCCCCCCCCC [Compound I-5]
- organ in which the highest total flux was measured [1]: spleen
- fraction of expression in the spleen compared with SM-102 ([1]; intravenous): higher fraction of expression in the spleen than SM-102
- Apparent pKa [2]: 6-7
- intramuscular expression (in words) [3]: higher intramuscular expression than DLin-MC3-DMA

Compound: CCCCCCCCCCN(CCCCCCCCCC)CCCOC(=O)CCCCN(CCO)CCCCC(=O)OCCCN(CCCCCCCCCC)CCCCCCCCCC [Compound I-6]
- expression compared with SM-102 in spleen and liver ([1]; intravenous): higher expression than SM-102 in the spleen but not in the liver
- expression in organs among the compounds related to this disclosure ([1]; intravenous): highest expression in all organs
- fraction of expression in the spleen compared with SM-102 ([1]; intravenous): higher fraction of expression in the spleen than SM-102
- Apparent pKa [2]: 6-7
- intramuscular expression (in words) [3]: higher intramuscular expression than DLin-MC3-DMA; also recorded: highest intramuscular expression of all compounds tested
- Kp [4, 6]: 46
- Kp [4, 7]: 962
- Kp [4, 8]: 59
- half-life ([4]; mouse plasma, IM mRNA-LNP): 15.3 h
- AUC(0-t) ([4]; mouse plasma, IM mRNA-LNP): 1030 ng·h/mL
- Cmax ([4]; mouse plasma, IM mRNA-LNP): 108 ng/mL
- Overall tissue exposure (AUC0-tlast), liver ([4]; IM mRNA-LNP): 47.0 µg·h/g
- Overall tissue exposure (AUC0-tlast), muscle ([4]; IM mRNA-LNP): 994 µg·h/g
- time of peak plasma level ([4]; mouse plasma, IM mRNA-LNP): 3 h
- Overall tissue exposure (AUC0-tlast), spleen ([4]; IM mRNA-LNP): 61.1 µg·h/g
- detection in urine ([4]; IM mRNA-LNP): Neither Compound I-12 nor Compound I-6 were detected in urine

Compound: CCCCCCCCCCN(CCCCCCCCCC)CCCCOC(=O)CCCCN(CCO)CCCCC(=O)OCCCCN(CCCCCCCCCC)CCCCCCCCCC [Compound I-7]
- Apparent pKa [2]: 6-7
- intramuscular expression (in words) [3]: higher intramuscular expression than DLin-MC3-DMA

Compound: CCCCCCCCCCN(CCCCCCCCCC)CCCC(=O)OCCCN(CCO)CCCOC(=O)CCCN(CCCCCCCCCC)CCCCCCCCCC [Compound I-8]
- organ in which the highest total flux was measured [1]: liver
- fraction of expression in the spleen compared with SM-102 ([1]; intravenous): higher fraction of expression in the spleen than SM-102
- Apparent pKa [2]: 6-7
- intramuscular expression (in words) [3]: higher intramuscular expression than DLin-MC3-DMA
- in vitro degradation rate, faster than Compound I-4 ([5]; 10 mM): ~50%

Compound: CCCCCCCCCCN(CCCCCCCCCC)CCNC(=O)CCN(CCO)CCC(=O)NCCN(CCCCCCCCCC)CCCCCCCCCC [Compound I-12]
- organ in which the highest total flux was measured [1]: spleen
- time required to have measurable levels of hydrolysis [5]: 10 days
- Kp [4, 6]: 50
- Kp [4, 7]: 236
- Kp [4, 8]: 28
- half-life ([4]; mouse plasma, IM mRNA-LNP): 295 h
- AUC(0-t) ([4]; mouse plasma, IM mRNA-LNP): 13800 ng·h/mL
- Cmax ([4]; mouse plasma, IM mRNA-LNP): 348 ng/mL
- Overall tissue exposure (AUC0-tlast), liver ([4]; IM mRNA-LNP): 694 µg·h/g
- Overall tissue exposure (AUC0-tlast), muscle ([4]; IM mRNA-LNP): 3244 µg·h/g
- plasma AUC0-tlast, fold greater than Compound I-6 ([4]; mouse plasma, IM mRNA-LNP): ~13 fold
- time of peak plasma level ([4]; mouse plasma, IM mRNA-LNP): 6 h
- Overall tissue exposure (AUC0-tlast), spleen ([4]; IM mRNA-LNP): 391 µg·h/g
- detection in urine ([4]; IM mRNA-LNP): Neither Compound I-12 nor Compound I-6 were detected in urine
- excreted in feces ([4]; mouse, after 21 days post-dose): Approximately 18%

Compound: CCCCC/C=C\C/C=C\CCCCCCCCC(CCCCCCCC/C=C\C/C=C\CCCCC)OC(=O)CCCN(C)C [DLin-MC3-DMA]
- time required to have measurable levels of hydrolysis [5]: 10 days

Compound: CCCCCCCCCCCOC(=O)CCCCCN(CCO)CCCCCCCC(=O)OC(CCCCCCCC)CCCCCCCC [SM-102, reference compound]
- organ in which the highest total flux was measured [1]: liver
- time to complete degradation (base-catalyzed hydrolysis) ([5]; 10 mM): ≤ 180 min

Compound: ALC-0315
- time required to have measurable levels of hydrolysis [5]: 10 days
